Patent US12479847B2 (DANA-FARBER CANCER INSTITUTE, INC., priority 2019, dated 2025)
Read-outs that look alike come from different tables or passages of the source.

Assays:
Assay in all cases: KINOMEscan (ScanMAX) kinase profiling
Assay type in all cases: binding
panel of 468 kinases [1] = molecular target: T1, panel of 468 kinases (Homo sapiens, UniProt O75582); settings: 1 μM, read-out: % control
T1 construct: purchased KINOMEscan (ScanMAX) service

panel of 468 kinases [2] = molecular target: T2, panel of 468 kinases (Homo sapiens, UniProt O94768); settings: DRAK2; 1 μM; read-out: % control
T2 construct: purchased KINOMEscan (ScanMAX) service
T2 sequence (O94768 1-372): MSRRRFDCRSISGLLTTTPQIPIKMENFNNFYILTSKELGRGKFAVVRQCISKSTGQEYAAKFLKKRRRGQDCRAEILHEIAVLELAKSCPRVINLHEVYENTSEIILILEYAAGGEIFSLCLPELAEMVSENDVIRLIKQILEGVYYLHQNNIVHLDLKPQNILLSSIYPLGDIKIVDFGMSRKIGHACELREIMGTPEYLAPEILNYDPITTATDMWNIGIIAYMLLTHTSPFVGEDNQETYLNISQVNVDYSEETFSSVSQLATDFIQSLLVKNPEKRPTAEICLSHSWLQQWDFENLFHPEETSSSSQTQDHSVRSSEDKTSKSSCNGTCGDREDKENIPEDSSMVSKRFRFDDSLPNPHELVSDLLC

panel of 468 kinases [3] = molecular target: T3, panel of 468 kinases (Homo sapiens, UniProt P06239); settings: LCK; 1 μM; read-out: % control
T3 construct: purchased KINOMEscan (ScanMAX) service

panel of 468 kinases [4] = molecular target: T4, panel of 468 kinases (Homo sapiens, UniProt P0C1S8); settings: WEE2; 1 μM; read-out: % control
T4 construct: purchased KINOMEscan (ScanMAX) service

panel of 468 kinases [5] = molecular target: T5, panel of 468 kinases (Homo sapiens, UniProt P10721, V559D/V654A); settings: KIT(V559D,V654A); 1 μM; read-out: % control
T5 construct: purchased KINOMEscan (ScanMAX) service

panel of 468 kinases [6] = molecular target: T6, panel of 468 kinases (Homo sapiens, UniProt P20794); settings: MAK; 1 μM; read-out: % control
T6 construct: purchased KINOMEscan (ScanMAX) service
T6 sequence (P20794 1-623): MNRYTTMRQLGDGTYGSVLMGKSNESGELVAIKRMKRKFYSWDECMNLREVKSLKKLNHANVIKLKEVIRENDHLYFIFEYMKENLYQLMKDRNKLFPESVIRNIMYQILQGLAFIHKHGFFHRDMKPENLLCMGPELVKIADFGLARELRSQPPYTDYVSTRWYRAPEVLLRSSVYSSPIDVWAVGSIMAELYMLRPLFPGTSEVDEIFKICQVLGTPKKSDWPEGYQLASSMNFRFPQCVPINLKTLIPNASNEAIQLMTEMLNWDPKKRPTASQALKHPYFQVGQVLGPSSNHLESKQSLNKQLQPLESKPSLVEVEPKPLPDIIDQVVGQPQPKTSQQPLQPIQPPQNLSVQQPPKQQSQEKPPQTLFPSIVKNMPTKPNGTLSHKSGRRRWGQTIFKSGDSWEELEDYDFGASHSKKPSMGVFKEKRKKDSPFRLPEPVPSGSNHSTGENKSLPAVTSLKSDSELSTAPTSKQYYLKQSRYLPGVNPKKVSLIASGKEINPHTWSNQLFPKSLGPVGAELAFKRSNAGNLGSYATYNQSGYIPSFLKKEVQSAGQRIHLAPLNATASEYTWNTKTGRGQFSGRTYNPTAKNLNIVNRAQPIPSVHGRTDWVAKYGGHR

panel of 468 kinases [7] = molecular target: T7, panel of 468 kinases (Homo sapiens, UniProt P48729); settings: CSNK1A1; 1 μM; read-out: % control
T7 construct: purchased KINOMEscan (ScanMAX) service

panel of 468 kinases [8] = molecular target: T8, panel of 468 kinases (Homo sapiens, UniProt P53778); settings: p38-gamma; 1 μM; read-out: % control
T8 construct: purchased KINOMEscan (ScanMAX) service
T8 sequence (P53778 1-367): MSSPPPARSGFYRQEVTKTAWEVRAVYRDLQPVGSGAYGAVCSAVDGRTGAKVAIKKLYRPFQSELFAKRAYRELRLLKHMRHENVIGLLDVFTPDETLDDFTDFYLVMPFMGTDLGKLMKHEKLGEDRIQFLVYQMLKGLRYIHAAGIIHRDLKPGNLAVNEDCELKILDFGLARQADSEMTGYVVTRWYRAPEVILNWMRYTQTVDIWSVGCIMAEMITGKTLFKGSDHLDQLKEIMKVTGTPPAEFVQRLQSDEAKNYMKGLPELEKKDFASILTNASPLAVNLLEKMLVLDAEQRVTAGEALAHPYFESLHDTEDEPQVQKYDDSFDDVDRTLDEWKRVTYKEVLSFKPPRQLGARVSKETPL

panel of 468 kinases [9] = molecular target: T9, panel of 468 kinases (Homo sapiens, UniProt P68400); settings: CSNK2A1; 1 μM; read-out: % control
T9 construct: purchased KINOMEscan (ScanMAX) service

panel of 468 kinases [10] = molecular target: T10, panel of 468 kinases (Homo sapiens, UniProt Q00526); settings: CDK3; 1 μM; read-out: % control
T10 construct: purchased KINOMEscan (ScanMAX) service

panel of 468 kinases [11] = molecular target: T11, panel of 468 kinases (Homo sapiens, UniProt Q00536); settings: PCTK1; 1 μM; read-out: % control
T11 construct: purchased KINOMEscan (ScanMAX) service

panel of 468 kinases [12] = molecular target: T12, panel of 468 kinases (Homo sapiens, UniProt Q15418); settings: 1 μM, read-out: % control
T12 construct: purchased KINOMEscan (ScanMAX) service

panel of 468 kinases [13] = molecular target: T13, panel of 468 kinases (Homo sapiens, UniProt Q16539); settings: p38-alpha; 1 μM; read-out: % control
T13 construct: purchased KINOMEscan (ScanMAX) service

panel of 468 kinases [14] = molecular target: T14, panel of 468 kinases (Homo sapiens, UniProt Q9UKE5); settings: TNIK; 1 μM; read-out: % control
T14 construct: purchased KINOMEscan (ScanMAX) service

panel of 468 kinases [15] = molecular target: T15, panel of 468 kinases (Homo sapiens, UniProt Q9UM73, L1196M); settings: ALK(L1196M); 1 μM; read-out: % control
T15 construct: purchased KINOMEscan (ScanMAX) service
T15 sequence (Q9UM73 19-1620 L1196M): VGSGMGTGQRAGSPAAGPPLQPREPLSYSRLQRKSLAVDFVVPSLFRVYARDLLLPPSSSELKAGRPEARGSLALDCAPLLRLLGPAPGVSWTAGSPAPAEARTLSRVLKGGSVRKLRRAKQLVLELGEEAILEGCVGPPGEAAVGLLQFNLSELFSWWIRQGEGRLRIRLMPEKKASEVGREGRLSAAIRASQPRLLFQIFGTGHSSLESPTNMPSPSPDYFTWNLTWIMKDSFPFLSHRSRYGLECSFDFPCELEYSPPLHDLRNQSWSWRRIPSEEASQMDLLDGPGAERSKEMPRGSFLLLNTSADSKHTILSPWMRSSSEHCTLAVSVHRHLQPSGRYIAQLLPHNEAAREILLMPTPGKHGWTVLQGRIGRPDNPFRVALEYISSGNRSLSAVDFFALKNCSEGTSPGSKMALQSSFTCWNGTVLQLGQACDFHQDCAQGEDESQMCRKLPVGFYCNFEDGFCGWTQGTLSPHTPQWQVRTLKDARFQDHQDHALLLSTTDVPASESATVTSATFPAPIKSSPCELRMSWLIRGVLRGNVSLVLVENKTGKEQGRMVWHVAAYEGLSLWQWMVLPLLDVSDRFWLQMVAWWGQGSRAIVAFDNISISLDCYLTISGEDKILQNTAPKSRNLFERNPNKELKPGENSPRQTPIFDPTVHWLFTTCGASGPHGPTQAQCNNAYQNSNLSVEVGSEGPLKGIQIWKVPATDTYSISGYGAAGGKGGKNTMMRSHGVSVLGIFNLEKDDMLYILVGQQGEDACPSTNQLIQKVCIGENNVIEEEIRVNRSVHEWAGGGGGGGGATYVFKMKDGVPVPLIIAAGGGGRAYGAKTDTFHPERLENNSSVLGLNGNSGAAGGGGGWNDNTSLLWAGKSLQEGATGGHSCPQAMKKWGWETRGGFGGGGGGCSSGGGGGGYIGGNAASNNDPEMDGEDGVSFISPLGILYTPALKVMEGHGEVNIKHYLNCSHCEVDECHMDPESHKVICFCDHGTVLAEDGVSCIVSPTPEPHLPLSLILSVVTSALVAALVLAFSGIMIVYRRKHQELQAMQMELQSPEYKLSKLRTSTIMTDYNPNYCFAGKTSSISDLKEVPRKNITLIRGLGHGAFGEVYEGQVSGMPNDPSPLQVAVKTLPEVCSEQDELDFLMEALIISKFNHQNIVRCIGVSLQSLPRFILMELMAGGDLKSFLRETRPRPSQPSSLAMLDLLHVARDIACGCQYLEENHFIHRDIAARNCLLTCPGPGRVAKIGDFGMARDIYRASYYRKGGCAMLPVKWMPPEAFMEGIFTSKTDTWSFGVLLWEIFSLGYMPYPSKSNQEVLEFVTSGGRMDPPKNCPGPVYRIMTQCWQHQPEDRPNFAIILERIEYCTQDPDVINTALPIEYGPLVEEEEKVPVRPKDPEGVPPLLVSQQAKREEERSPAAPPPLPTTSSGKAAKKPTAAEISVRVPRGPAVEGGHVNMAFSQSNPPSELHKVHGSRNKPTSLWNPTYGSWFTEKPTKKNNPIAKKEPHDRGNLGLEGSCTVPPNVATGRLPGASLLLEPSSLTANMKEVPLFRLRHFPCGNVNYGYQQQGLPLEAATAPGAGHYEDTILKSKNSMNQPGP

T14 sequence (Q9UKE5 whole entry): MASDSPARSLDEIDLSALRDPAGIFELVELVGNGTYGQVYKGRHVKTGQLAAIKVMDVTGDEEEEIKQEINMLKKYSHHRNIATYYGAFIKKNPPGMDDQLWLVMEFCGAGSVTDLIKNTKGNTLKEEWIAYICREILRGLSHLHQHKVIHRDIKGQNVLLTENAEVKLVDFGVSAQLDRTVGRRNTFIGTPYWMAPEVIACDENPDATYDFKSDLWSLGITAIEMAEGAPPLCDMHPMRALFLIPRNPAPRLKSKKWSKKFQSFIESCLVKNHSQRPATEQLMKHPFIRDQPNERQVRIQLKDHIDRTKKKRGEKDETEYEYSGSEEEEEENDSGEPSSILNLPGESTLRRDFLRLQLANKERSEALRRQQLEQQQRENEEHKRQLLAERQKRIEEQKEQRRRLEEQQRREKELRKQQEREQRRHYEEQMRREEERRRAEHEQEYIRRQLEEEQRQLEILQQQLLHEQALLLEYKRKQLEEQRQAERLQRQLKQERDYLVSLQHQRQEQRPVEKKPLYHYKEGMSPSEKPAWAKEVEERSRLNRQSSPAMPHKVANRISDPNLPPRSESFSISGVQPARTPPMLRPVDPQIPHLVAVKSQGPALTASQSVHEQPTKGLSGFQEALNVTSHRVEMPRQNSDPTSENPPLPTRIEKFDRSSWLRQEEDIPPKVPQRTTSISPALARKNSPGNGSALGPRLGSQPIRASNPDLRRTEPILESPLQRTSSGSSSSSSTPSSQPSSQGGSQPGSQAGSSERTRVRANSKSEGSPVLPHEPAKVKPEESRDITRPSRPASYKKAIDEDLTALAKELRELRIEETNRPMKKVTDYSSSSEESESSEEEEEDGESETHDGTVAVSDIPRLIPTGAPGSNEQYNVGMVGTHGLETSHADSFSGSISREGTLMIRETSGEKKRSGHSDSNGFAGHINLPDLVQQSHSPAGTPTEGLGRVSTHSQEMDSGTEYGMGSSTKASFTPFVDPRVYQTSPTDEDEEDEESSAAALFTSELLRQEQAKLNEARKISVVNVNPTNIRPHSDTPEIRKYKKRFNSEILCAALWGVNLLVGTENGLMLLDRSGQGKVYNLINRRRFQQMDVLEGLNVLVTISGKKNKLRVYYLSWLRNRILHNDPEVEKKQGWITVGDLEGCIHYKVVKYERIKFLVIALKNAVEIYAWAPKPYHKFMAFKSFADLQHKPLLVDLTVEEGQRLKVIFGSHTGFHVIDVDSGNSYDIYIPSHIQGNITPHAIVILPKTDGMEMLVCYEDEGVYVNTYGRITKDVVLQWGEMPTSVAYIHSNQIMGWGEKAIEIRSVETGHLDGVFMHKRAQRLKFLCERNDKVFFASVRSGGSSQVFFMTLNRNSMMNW
T10 sequence (Q00526 whole entry): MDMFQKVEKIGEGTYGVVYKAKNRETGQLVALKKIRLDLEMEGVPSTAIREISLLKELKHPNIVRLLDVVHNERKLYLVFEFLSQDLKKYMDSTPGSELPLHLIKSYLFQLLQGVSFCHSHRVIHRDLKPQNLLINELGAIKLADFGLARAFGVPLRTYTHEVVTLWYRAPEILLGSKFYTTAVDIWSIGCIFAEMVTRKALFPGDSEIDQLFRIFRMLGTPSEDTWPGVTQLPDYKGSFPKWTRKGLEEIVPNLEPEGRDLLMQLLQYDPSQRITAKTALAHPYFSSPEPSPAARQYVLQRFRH
T3 sequence (P06239 whole entry): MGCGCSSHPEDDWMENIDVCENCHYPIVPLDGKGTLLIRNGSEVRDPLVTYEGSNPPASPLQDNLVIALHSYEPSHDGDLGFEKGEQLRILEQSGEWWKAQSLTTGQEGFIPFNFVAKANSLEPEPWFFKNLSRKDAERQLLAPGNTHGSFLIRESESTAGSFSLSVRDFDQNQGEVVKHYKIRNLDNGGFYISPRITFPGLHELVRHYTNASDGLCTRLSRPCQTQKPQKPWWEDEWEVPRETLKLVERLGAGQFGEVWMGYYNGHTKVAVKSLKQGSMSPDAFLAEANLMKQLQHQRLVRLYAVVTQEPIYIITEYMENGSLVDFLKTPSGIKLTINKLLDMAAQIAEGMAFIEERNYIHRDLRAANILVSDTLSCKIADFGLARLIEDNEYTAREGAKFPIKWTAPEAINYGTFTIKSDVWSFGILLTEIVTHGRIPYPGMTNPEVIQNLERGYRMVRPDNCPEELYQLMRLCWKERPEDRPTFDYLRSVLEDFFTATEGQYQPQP
T12 sequence (Q15418 whole entry): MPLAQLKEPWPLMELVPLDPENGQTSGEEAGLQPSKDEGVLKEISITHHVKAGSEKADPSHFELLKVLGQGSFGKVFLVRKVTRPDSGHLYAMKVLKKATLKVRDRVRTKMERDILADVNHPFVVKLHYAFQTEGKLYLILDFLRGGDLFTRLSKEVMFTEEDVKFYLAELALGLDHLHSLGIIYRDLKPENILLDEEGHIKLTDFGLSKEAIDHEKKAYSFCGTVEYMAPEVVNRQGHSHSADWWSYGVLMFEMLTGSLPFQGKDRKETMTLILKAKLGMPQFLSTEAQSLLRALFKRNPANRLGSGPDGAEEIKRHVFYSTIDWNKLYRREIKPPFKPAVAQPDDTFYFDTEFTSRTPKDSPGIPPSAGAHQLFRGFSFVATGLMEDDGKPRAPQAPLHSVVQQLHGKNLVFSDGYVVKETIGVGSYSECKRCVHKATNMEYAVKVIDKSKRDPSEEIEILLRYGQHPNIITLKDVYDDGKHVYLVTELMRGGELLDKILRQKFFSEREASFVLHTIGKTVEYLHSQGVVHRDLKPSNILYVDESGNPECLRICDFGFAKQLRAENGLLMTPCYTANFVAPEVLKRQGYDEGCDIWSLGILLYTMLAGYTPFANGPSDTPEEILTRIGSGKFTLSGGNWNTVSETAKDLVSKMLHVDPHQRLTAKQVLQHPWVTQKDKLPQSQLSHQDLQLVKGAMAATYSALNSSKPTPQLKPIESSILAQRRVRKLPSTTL
T4 sequence (P0C1S8 whole entry): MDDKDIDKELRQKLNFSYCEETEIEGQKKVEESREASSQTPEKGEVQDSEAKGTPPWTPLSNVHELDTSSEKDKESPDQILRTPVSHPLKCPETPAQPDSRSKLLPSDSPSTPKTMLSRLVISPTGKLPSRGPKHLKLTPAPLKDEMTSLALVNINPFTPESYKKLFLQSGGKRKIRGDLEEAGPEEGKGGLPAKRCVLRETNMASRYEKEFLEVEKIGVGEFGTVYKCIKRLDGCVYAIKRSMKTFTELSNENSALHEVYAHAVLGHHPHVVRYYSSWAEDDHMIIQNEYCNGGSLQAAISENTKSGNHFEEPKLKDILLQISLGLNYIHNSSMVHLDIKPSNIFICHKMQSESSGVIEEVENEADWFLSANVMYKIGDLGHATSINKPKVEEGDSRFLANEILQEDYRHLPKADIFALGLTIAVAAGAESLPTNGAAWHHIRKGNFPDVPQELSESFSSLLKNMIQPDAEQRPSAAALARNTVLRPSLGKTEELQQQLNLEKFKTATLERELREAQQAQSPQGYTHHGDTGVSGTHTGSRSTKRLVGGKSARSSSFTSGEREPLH

| Compound | remaining binding at 1 µM (panel of 468 kinases [1]; RPS6KA5(Kin.Dom.1-N-terminal)) [%] | remaining binding at 1 µM (panel of 468 kinases [1]; RPS6KA5(Kin.Dom.2-C-terminal)) [%] | remaining binding at 1 µM (panel of 468 kinases [2]) [%] | remaining binding at 1 µM (panel of 468 kinases [3]) [%] | remaining binding at 1 µM (panel of 468 kinases [4]) [%] | remaining binding at 1 µM (panel of 468 kinases [5]) [%] | remaining binding at 1 µM (panel of 468 kinases [6]) [%] | remaining binding at 1 µM (panel of 468 kinases [7]) [%] | remaining binding at 1 µM (panel of 468 kinases [8]) [%] | remaining binding at 1 µM (panel of 468 kinases [9]) [%] | remaining binding at 1 µM (panel of 468 kinases [10]) [%] | remaining binding at 1 µM (panel of 468 kinases [11]) [%] | remaining binding at 1 µM (panel of 468 kinases [12]; RSK1(Kin.Dom.1-N-terminal)) [%] | remaining binding at 1 µM (panel of 468 kinases [12]; RSK1(Kin.Dom.2-C-terminal)) [%] | remaining binding at 1 µM (panel of 468 kinases [13]) [%] | remaining binding at 1 µM (panel of 468 kinases [14]) [%] | remaining binding at 1 µM (panel of 468 kinases [15]) [%] |
| --- | --- | --- | --- | --- | --- | --- | --- | --- | --- | --- | --- | --- | --- | --- | --- | --- | --- |
| CNc1nc(Nc2ccc(S(=O)(=O)N3CCC(N4CCOCC4)CC3)cc2OC)nc2[nH]cc(Cl)c12 [Compound 12, 5-chloro-N2-(2-methoxy-4-((4-morpholinopiperidin-1-yl)sulfonyl)phenyl)-N4-methyl-7H-pyrrolo[2,3-d]pyrimidine-2,4-diamine] | 100 | 69 | 74 | 91 | 100 | 100 | 100 | 48 | 100 | 63 | 86 | 64 | 100 | 100 | 100 | 92 | 11 |
| CNc1nc(Nc2ccc(C(=O)N3CCC(N4CCOCC4)CC3)c3c2OCO3)nc2[nH]cc(Cl)c12 [Compound 75, (7-((5-chloro-4-(methylamino)-7H-pyrrolo[2,3-d]pyrimidin-2-yl)amino)benzo[d][1,3]dioxol-4-yl)(4-morpholinopiperidin-1-yl)methanone] | 100 | 21 | 3.9 | 100 | 100 | 94 | 100 | 32 | 91 | 24 | 98 | 60 | 100 | 99 | 100 | 39 | 27 |
| CNc1nc(Nc2ccc(P3(=O)CCN(C4CCOCC4)CC3)cc2OC)nc2[nH]cc(Cl)c12 [Compound 77, 4-(4-((5-chloro-4-(methylamino)-7H-pyrrolo[2,3-d]pyrimidin-2-yl)amino)-3-methoxyphenyl)-1-(tetrahydro-2H-pyran-4-yl)-1,4-azaphosphinane 4-oxide] | 94 | 20 | 39 | 100 | 100 | 96 | 100 | 27 | 98 | 59 | 95 | 84 | 100 | 64 | 100 | 72 | 7.1 |
